{
  "source": "patent US12048737B2",
  "about": "“Use of a vaccine targeting a cryptic tert epitope, for treating cancer in a HLA-A*0201-positive patient having a non-immunogenic tumor expressing tert” (KRIPTIC PHARMACEUTICALS LIMITED, priority 2017, dated 2024)",
  "key": {"[1]": {"test_system": "NSCLC tumors expressing TElomerase Reverse Transcriptase (TERT)", "experiment": "Vx-001-201 randomized double blind phase IIb study: clinical outcome (OS, TTF, 12 months survival)", "assay_type": "in vivo, human", "settings": "without natural immunity; for HR (OS) / HR (TTF): Vx-001 vs placebo", "excerpt": "The Vx-001-201 study is a randomized, double blind multicenter study done in 70 centers in France, Germany, Spain, Italy, Greece, Poland, Romania and Czech Republic. Key eligibility criteria were a) non small cell lung cancer (NSCLC), b) stage IV or recurrent stage I-III, c) disease control after platinum based first line chemotherapy according to RECIST 1.1 criteria, d) HLA-A*0201 positivity, e) tumors expressing TElomerase Reverse Transcriptase (TERT), f) ECOG 0 or 1 g) absence of brain metastasis.\n• a) Principal endpoint: overall survival (OS) measured from randomization • b) Secondary endpoints: • Time to Treatment Failure (TTF) measured from randomization • OS at 12 months • c) Main exploratory objectives • Evaluation of vaccine induced specific immune response • Correlation between vaccine specific immune response and clinical response Procedures and Vaccination Protocol\nPatients who fulfilled all inclusion criteria were randomized within 4 weeks after the end of first line chemotherapy.\nThe vaccination protocol consisted in six vaccinations at three week interval. The optimized Vx-001/TERT572Y was used in the first two vaccinations and the native Vx-001/TERT572 in the following four vaccinations. Patients who continued controlling their disease after the sixth vaccination received boost vaccination with the Vx-001/TERT572 every three months. Vaccination was stopped at disease progression (FIG. 1).\nThe primary and secondary endpoints were analysed in the Full Analysis Set (FAS) composed of all patients who fulfilled the five main criteria a) NSCLC, b) stage IV or recurrent stage I-III, c) disease control after first line chemotherapy, d) HLA-A*0201 positivity and e) TERT expressing tumors.\nWe used the Kaplan-Meier method to estimate OS and TTF in each arm and a Cox proportional hazards regression model to estimate Hazard Ratio (HR) relating OS and TTF to the treatment effect."}, "TERT572 peptide": {"test_system": "TERT572 peptide", "experiment": "IFNg ELISpot immunomonitoring of vaccine induced TERT572 specific immune response in PBMC", "assay_type": "cell-based, human"}, "[2]": {"settings": "Former smoker (≤20 years) (never smoked or smokers less than 20 years)"}, "[3]": {"settings": "Former smoker (≤25 years) (never smoked or smokers less than 25 years)"}, "[4]": {"settings": "Heavy smoker (>25 years, former or current smoker)"}, "[5]": {"settings": "NS or light smoker (≤25 years, former or current smoker)"}},
  "note": "“And” between values parts separate entries of the source, which are not always exact repeats. Equal values may be shown once.",
  "data": [
    {"substance": "Vx-001: vaccine composed of two nine amino acid peptides, TERT572 and TERT572Y, administered separately with the adjuvant Montanide ISA51 VG (chain 1 RLFFYRKSV; chain 2 YLFFYRKSV; Montanide ISA51 VG adjuvant; peptide from a human protein; optimized peptide)", "values": [
      {"measurement": "Median survival (OS)", "setting": "[1]; <65 years (n = 59)", "value": 12.7, "unit": "months"},
      {"measurement": "HR (OS)", "setting": "[1]; <65 years (n = 59)", "value": 1.00},
      {"measurement": "HR (TTF)", "setting": "[1]; <65 years (n = 59)", "value": 0.84},
      {"measurement": "12 months OS", "setting": "[1]; >65 years (n = 63)", "value": 57.1, "unit": "%"},
      {"measurement": "Median TTF", "setting": "[1]; >65 years (n = 63)", "value": 4.4, "unit": "months"},
      {"measurement": "Median survival (OS)", "setting": "[1]; >65 years (n = 63)", "value": 14.1, "unit": "months"},
      {"measurement": "HR (OS)", "setting": "[1]; >65 years (n = 63)", "value": 0.63},
      {"measurement": "HR (TTF)", "setting": "[1]; >65 years (n = 63)", "value": 0.65},
      {"measurement": "12 months OS", "setting": "[1]; Current smoker", "value": 20, "unit": "%"},
      {"measurement": "Median TTF", "setting": "[1]; Current smoker", "value": 4.4, "unit": "months"},
      {"measurement": "Median survival (OS)", "setting": "[1]; Current smoker", "value": 6.4, "unit": "months"},
      {"measurement": "HR (OS)", "setting": "[1]; Current smoker", "value": 1.3},
      {"measurement": "HR (TTF)", "setting": "[1]; Current smoker", "value": 0.70},
      {"measurement": "12 months OS", "setting": "[1]; Female (n = 33)", "value": 52.9, "unit": "%"},
      {"measurement": "Median TTF", "setting": "[1]; Female (n = 33)", "value": 4.6, "unit": "months"},
      {"measurement": "Median survival (OS)", "setting": "[1]; Female (n = 33)", "value": 12.7, "unit": "months"},
      {"measurement": "HR (OS)", "setting": "[1]; Female (n = 33)", "value": 1.24},
      {"measurement": "HR (TTF)", "setting": "[1]; Female (n = 33)", "value": 0.91},
      {"measurement": "Median TTF", "setting": "[1]; Former smoker (<30 years)", "value": 4.2, "unit": "months"},
      {"measurement": "HR (TTF)", "setting": "[1]; Former smoker (<30 years)", "value": 0.55},
      {"measurement": "Median TTF", "setting": "[1]; [2]", "value": 5.6, "unit": "months"},
      {"measurement": "HR (TTF)", "setting": "[1]; [2]", "value": 0.39},
      {"measurement": "Median TTF", "setting": "[1]; [3]", "value": 5.6, "unit": "months"},
      {"measurement": "HR (TTF)", "setting": "[1]; [3]", "value": 0.43},
      {"measurement": "12 months OS", "setting": "[1]; [4]", "value": 42.1, "unit": "%"},
      {"measurement": "Median survival (OS)", "setting": "[1]; [4]", "value": 9.9, "unit": "months"},
      {"measurement": "HR (OS)", "setting": "[1]; [4]", "value": 1.15},
      {"measurement": "12 months OS", "setting": "[1]; Male (n = 89)", "value": 56.4, "unit": "%"},
      {"measurement": "Median TTF", "setting": "[1]; Male (n = 89)", "value": 3.7, "unit": "months"},
      {"measurement": "Median survival (OS)", "setting": "[1]; Male (n = 89)", "value": 14.1, "unit": "months"},
      {"measurement": "HR (OS)", "setting": "[1]; Male (n = 89)", "value": 0.70},
      {"measurement": "HR (TTF)", "setting": "[1]; Male (n = 89)", "value": 0.7},
      {"measurement": "12 months OS", "setting": "[1]; NS + Former smoker (<30 years)", "value": 78, "unit": "%"},
      {"measurement": "Median survival (OS)", "setting": "[1]; NS + Former smoker (<30 years)", "value": 20.2, "unit": "months"},
      {"measurement": "HR (OS)", "setting": "[1]; NS + Former smoker (<30 years)", "value": 0.37},
      {"measurement": "12 months OS", "setting": "[1]; NS + Former smoker (≤20 years)", "value": 80, "unit": "%"},
      {"measurement": "Median survival (OS)", "setting": "[1]; NS + Former smoker (≤20 years)", "value": 20.2, "unit": "months"},
      {"measurement": "HR (OS)", "setting": "[1]; NS + Former smoker (≤20 years)", "value": 0.23},
      {"measurement": "12 months OS", "setting": "[1]; NS + Former smoker (≤25 years)", "value": 82.3, "unit": "%"},
      {"measurement": "Median survival (OS)", "setting": "[1]; NS + Former smoker (≤25 years)", "value": 20.7, "unit": "months"},
      {"measurement": "HR (OS)", "setting": "[1]; NS + Former smoker (≤25 years)", "value": 0.29},
      {"measurement": "12 months OS", "setting": "[1]; [5]", "value": 83.0, "unit": "%"},
      {"measurement": "Median survival (OS)", "setting": "[1]; [5]", "value": 20.7, "unit": "months"},
      {"measurement": "HR (OS)", "setting": "[1]; [5]", "value": 0.27},
      {"measurement": "12 months OS", "setting": "[1]; NSQ (n = 76)", "value": 56.7, "unit": "%"},
      {"measurement": "Median survival (OS)", "setting": "[1]; NSQ (n = 76)", "value": 13.4, "unit": "months"},
      {"measurement": "HR (OS)", "setting": "[1]; NSQ (n = 76)", "value": 0.58},
      {"measurement": "Median TTF", "setting": "[1]; NSQ (n = 78)", "value": 4.6, "unit": "months"},
      {"measurement": "HR (TTF)", "setting": "[1]; NSQ (n = 78)", "value": 0.61},
      {"measurement": "Median TTF", "setting": "[1]; Never smoker", "value": 5.6, "unit": "months"},
      {"measurement": "12 months OS", "setting": "[1]; Never smoker (NS)", "value": 85.7, "unit": "%"},
      {"measurement": "Median survival (OS)", "setting": "[1]; Never smoker (NS)", "value": 16.2, "unit": "months"},
      {"measurement": "HR (OS)", "setting": "[1]; Never smoker (NS)", "value": 0.2},
      {"measurement": "HR (TTF)", "setting": "[1]; Never smoker", "value": 0.51},
      {"measurement": "12 months OS", "setting": "[1]; OR to chemotherapy (n = 55)", "value": "59% and 57.9%"},
      {"measurement": "Median TTF", "setting": "[1]; OR to chemotherapy (n = 55)", "value": 5.3, "unit": "months"},
      {"measurement": "Median survival (OS)", "setting": "[1]; OR to chemotherapy (n = 55)", "value": 13.2, "unit": "months"},
      {"measurement": "HR (OS)", "setting": "[1]; OR to chemotherapy (n = 55)", "value": 0.72},
      {"measurement": "HR (TTF)", "setting": "[1]; OR to chemotherapy (n = 55)", "value": 0.56},
      {"measurement": "12 months OS", "setting": "[1]; SD to chemotherapy (n = 67)", "value": 54, "unit": "%"},
      {"measurement": "Median TTF", "setting": "[1]; SD to chemotherapy (n = 67)", "value": 3.6, "unit": "months"},
      {"measurement": "Median survival (OS)", "setting": "[1]; SD to chemotherapy (n = 67)", "value": 13.6, "unit": "months"},
      {"measurement": "HR (OS)", "setting": "[1]; SD to chemotherapy (n = 67)", "value": 0.82},
      {"measurement": "HR (TTF)", "setting": "[1]; SD to chemotherapy (n = 67)", "value": 0.95},
      {"measurement": "12 months OS", "setting": "[1]; SQ (n = 46)", "value": 52.6, "unit": "%"},
      {"measurement": "Median TTF", "setting": "[1]; SQ (n = 46)", "value": 3, "unit": "months"},
      {"measurement": "Median survival (OS)", "setting": "[1]; SQ (n = 46)", "value": 13.2, "unit": "months"},
      {"measurement": "HR (OS)", "setting": "[1]; SQ (n = 46)", "value": 1.41},
      {"measurement": "HR (TTF)", "setting": "[1]; SQ (n = 46)", "value": 1.18},
      {"measurement": "Patients who mounted a TERT572 specific immune response", "setting": "TERT572 peptide; 75 Vx-001 treated patients measured at least at W6, W18 or thereafter", "value": 29.3, "unit": "%"},
      {"measurement": "Patients with TERT572 specific immune response", "setting": "TERT572 peptide; non-squamous (NSQ) NSCLC", "value": 36, "unit": "%"},
      {"measurement": "Frequency of patients with vaccine-induced immune response", "setting": "TERT572 peptide; patients with natural immunity against TERT572", "value": 15, "unit": "%"},
      {"measurement": "Frequency of patients with vaccine-induced immune response", "setting": "TERT572 peptide; patients without natural immunity against TERT572", "value": 36.2, "unit": "%"},
      {"measurement": "Patients with TERT572 specific immune response", "setting": "TERT572 peptide; squamous (SQ) NSCLC", "value": 13.3, "unit": "%"}
    ]}
  ]
}
